# Calls of active or inactive are those of the source. No cut-off for these calls is given here.
# Columns and labels:
# HEK293 = assay: Cytotoxicity against HEK293 cells incubated for 72 hrs by MTT assay; format: toxicity, cell-based; details: human, hek293, 72 h
# [1] = Selectivity index, ratio of CC50 for HEK293 cells to EC50 for recombinant Ebola virus Mayinga expressing GFP infected in human HeLa cells with ATP6V0a2 KO; format: toxicity, cell-based; details: read-out: Ratio CC50/EC50
# [2] = biological target: Voltage-gated inwardly rectifying potassium channel KCNH2 (Homo sapiens, UniProt Q12809); assay: Inhibition of hERG at 10 uM relative to control; format: toxicity
# Ebolavirus [3] = assay: Antiviral activity against recombinant Ebola virus Mayinga expressing GFP infected in human HeLa cells with ATP6V0a2 KO assessed as reduction in viral entry into cells pretreated for 1 hr followed by viral infection measured after 24 to 48 hrs by imaging analysis; format: functional, organism-based; details: Orthoebolavirus
# [4] = AUC (0.25 to 24 hrs) in CD-1 mouse at 50 mg/kg, po by LC-MS/MS analysis; format: ADME, organism-based; details: in vivo
# [5] = MRT in CD-1 mouse at 50 mg/kg, po by LC-MS/MS analysis; format: ADME, organism-based; details: in vivo
# [6] = Apparent oral clearance in CD-1 mouse at 50 mg/kg, po by LC-MS/MS analysis; format: ADME, organism-based; details: in vivo
# [7] = Tmax in CD-1 mouse at 50 mg/kg, po by LC-MS/MS analysis; format: ADME, organism-based; details: in vivo
# [8] = Apparent volume of distribution during terminal phase in CD-1 mouse at 50 mg/kg, po by LC-MS/MS analysis; format: ADME, organism-based; details: in vivo, read-out: Vz/F
# [9] = Half life in CD-1 mouse at 50 mg/kg, po by LC-MS/MS analysis; format: ADME, organism-based; details: in vivo
# [10] = Cmax in CD-1 mouse at 50 mg/kg, po by LC-MS/MS analysis; format: ADME, organism-based; details: in vivo
# [11] = AUC (infinity) in CD-1 mouse at 50 mg/kg, po by LC-MS/MS analysis; format: ADME, organism-based; details: in vivo
# Ebolavirus [12] = assay: Antiviral activity against recombinant Ebola virus Mayinga expressing GFP infected in human primary macrophages assessed as reduction in infectivity pretreated for 1 hr followed by viral infection measured after 24 to 48 hrs by imaging analysis; format: functional, organism-based; details: Orthoebolavirus, Primary macrophage
# [13] = Selectivity index, ratio of CC50 for human primary macrophages to EC50 for recombinant Ebola virus Mayinga expressing GFP infected in human primary macrophages; format: toxicity; details: read-out: Ratio CC50/EC50
# A549 = assay: Induction of phospholipidosis in NBD-PE-treated human A549 cells at 5 to 10 uM incubated for 24 hrs by imaging based analysis; format: functional, cell-based; details: dose 5-10 µM
# Chain of Voltage-gated inwardly rectifying potassium channel KCNH2 (Q12809 whole entry): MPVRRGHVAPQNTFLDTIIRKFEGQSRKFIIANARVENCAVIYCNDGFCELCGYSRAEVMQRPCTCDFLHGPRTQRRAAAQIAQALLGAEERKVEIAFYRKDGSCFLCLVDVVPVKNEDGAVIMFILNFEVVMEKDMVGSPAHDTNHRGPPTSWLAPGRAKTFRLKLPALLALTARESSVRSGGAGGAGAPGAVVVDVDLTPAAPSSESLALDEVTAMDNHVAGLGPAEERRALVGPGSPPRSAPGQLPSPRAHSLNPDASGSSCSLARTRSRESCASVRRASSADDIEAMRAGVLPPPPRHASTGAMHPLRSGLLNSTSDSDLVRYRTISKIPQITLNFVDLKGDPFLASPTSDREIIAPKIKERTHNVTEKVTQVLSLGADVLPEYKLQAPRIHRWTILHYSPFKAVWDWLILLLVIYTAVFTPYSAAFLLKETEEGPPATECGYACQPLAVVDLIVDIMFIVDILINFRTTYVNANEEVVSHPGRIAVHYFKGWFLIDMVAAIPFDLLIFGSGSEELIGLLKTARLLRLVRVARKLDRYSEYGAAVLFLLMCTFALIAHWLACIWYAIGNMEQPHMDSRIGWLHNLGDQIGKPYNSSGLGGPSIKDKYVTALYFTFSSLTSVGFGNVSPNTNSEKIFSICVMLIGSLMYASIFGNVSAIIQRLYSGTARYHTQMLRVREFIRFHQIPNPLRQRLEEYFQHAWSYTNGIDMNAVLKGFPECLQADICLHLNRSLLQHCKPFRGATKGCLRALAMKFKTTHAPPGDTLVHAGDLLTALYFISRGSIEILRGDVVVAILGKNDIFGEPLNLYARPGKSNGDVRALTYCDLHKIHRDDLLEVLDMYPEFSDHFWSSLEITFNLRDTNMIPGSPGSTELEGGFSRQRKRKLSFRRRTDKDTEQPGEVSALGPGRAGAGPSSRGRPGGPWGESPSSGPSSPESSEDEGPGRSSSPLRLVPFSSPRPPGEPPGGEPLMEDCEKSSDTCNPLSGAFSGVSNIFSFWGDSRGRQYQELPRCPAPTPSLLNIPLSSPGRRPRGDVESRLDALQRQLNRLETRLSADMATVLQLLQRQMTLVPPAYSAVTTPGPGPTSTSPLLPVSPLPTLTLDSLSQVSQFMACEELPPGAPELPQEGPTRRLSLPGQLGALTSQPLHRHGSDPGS
compound,measurement,setting,value
COc1cc2c(OCCCN3CCN(C=O)CC3)c3c(c(-c4ccc5c(c4)OCO5)c2cc1OC)C(=O)OC3,CC50,HEK293,> 80000 nM
same,selectivity ratio,[1],> 610
same,inhibition (INH),[2],34%
same,EC50,Ebolavirus [3],31 nM
COc1cc2c(OC3CCNCC3)c3c(c(-c4ccc5c(c4)OCO5)c2cc1OC)C(=O)OC3,AUC(0-t),[4],0.636 µM·h
same,MRT,[5],113 h
same,CC50,HEK293,> 80000 nM
same,selectivity ratio,[1],510
same,CL/F,[6],14.1 mL/min
same,Tmax,[7],2 h
same,Vd/F,[8],105 L
same,t1/2,[9],86.2 h
same,Cmax,[10],151 nM
same,inhibition (INH),[2],80%
same,AUC,[11],2.532 µM·h
same,EC50,Ebolavirus [3],32 nM
COc1cc2c(OCCCN3CCN(S(C)(=O)=O)CC3)c3c(c(-c4ccc5c(c4)OCO5)c2cc1OC)C(=O)OC3,CC50,HEK293,> 80000 nM
same,selectivity ratio,[1],> 550
same,inhibition (INH),[2],16%
same,EC50,Ebolavirus [3],35 nM
COc1cc2c(OCCCN3CC4CCC3CO4)c3c(c(-c4ccc5c(c4)OCO5)c2cc1OC)C(=O)OC3 (stereo unspecified),EC50,Ebolavirus [12],19 nM
same,CC50,HEK293,80000 nM
same,selectivity ratio,[1],> 1200
same,inhibition (INH),[2],54%
same,EC50,Ebolavirus [3],28 nM
same,selectivity ratio,[13],319
COc1cc2c(OCC(O)CN3CCOCC3)c3c(c(-c4ccc5c(c4)OCO5)c2cc1OC)C(=O)OC3 (stereo unspecified),CC50,HEK293,> 80000 nM
same,selectivity ratio,[1],> 160
same,inhibition (INH),[2],16%
same,EC50,Ebolavirus [3],157 nM
COc1cc2c(OCCCN3CCOCC3)c3c(c(-c4ccc5c(c4)OCO5)c2cc1OC)C(=O)OC3,CC50,HEK293,> 80000 nM
same,selectivity ratio,[1],> 230
same,inhibition (INH),[2],11%
same,EC50,Ebolavirus [3],95 nM
COc1cc2c(OC3COC3)c3c(c(-c4ccc5c(c4)OCO5)c2cc1OC)C(=O)OC3,CC50,HEK293,72000 nM
same,selectivity ratio,[1],> 79
same,inhibition (INH),[2],15%
same,EC50,Ebolavirus [3],318 nM
COc1cc2c(OCCCN3CC4CC3CO4)c3c(c(-c4ccc5c(c4)OCO5)c2cc1OC)C(=O)OC3 (stereo unspecified),CC50,HEK293,52000 nM
same,selectivity ratio,[1],> 660
same,inhibition (INH),[2],73%
same,EC50,Ebolavirus [3],48 nM
COc1cc2c(OC3CCNC3)c3c(c(-c4ccc5c(c4)OCO5)c2cc1OC)C(=O)OC3 (stereo unspecified),CC50,HEK293,> 80000 nM
same,selectivity ratio,[1],300
same,inhibition (INH),[2],97%
same,EC50,Ebolavirus [3],86 nM
CCCCc1oc2ccccc2c1C(=O)c1cc(I)c(OCCN(CC)CC)c(I)c1,Activity,A549,Active
COc1cc2c(OCC#N)c3c(c(-c4ccc5c(c4)OCO5)c2cc1OC)C(=O)OC3,CC50,HEK293,> 80000 nM
same,selectivity ratio,[1],> 140
same,inhibition (INH),[2],6%
same,EC50,Ebolavirus [3],182 nM
COc1cc2c(OC3CCOC3)c3c(c(-c4ccc5c(c4)OCO5)c2cc1OC)C(=O)OC3 (stereo unspecified),AUC(0-t),[4],12 µM·h
same,MRT,[5],18 h
same,EC50,Ebolavirus [12],107 nM
same,CC50,HEK293,> 80000 nM
same,selectivity ratio,[1],87
same,CL/F,[6],2.25 mL/min
same,Tmax,[7],0.5 h
same,Vd/F,[8],2.63 L
same,t1/2,[9],13.5 h
same,Cmax,[10],1250 nM
same,inhibition (INH),[2],30%
same,AUC,[11],16.455 µM·h
same,EC50,Ebolavirus [3],40 nM
same,selectivity ratio,[13],132
COc1cc2c(OC3CCOCC3)c3c(c(-c4ccc5c(c4)OCO5)c2cc1OC)C(=O)OC3,CC50,HEK293,> 80000 nM
same,selectivity ratio,[1],43
same,inhibition (INH),[2],36%
same,EC50,Ebolavirus [3],124 nM
COc1cc2c(OCCCN3CCNC(=O)C3)c3c(c(-c4ccc5c(c4)OCO5)c2cc1OC)C(=O)OC3,CC50,HEK293,> 80000 nM
same,inhibition (INH),[2],5%
same,EC50,Ebolavirus [3],441 nM
COc1cc2c(OCCCN3CC4CCC3CN4C)c3c(c(-c4ccc5c(c4)OCO5)c2cc1OC)C(=O)OC3 (stereo unspecified),EC50,Ebolavirus [12],2 nM
same,CC50,HEK293,54000 nM
same,selectivity ratio,[1],> 1020
same,inhibition (INH),[2],90%
same,EC50,Ebolavirus [3],26 nM
same,selectivity ratio,[13],3240
COc1cc2c(OCCCN3[C@@H]4CC[C@H]3COC4)c3c(c(-c4ccc5c(c4)OCO5)c2cc1OC)C(=O)OC3,CC50,HEK293,> 80000 nM
same,selectivity ratio,[1],> 190
same,inhibition (INH),[2],76%
same,EC50,Ebolavirus [3],143 nM
COC(=O)N1CCN(CCCOc2c3c(c(-c4ccc5c(c4)OCO5)c4cc(OC)c(OC)cc24)C(=O)OC3)CC1,CC50,HEK293,> 80000 nM
same,selectivity ratio,[1],> 110
same,inhibition (INH),[2],30%
same,EC50,Ebolavirus [3],22 nM

# Source: ChEMBL document CHEMBL5584240, “Evaluation of potency and metabolic stability of diphyllin-derived Vacuolar-ATPase inhibitors” (Eur J Med Chem, 2024)
